Experimental data: patent US4851414A, “Anti-dementia agent” (Kyowa Hakko Kagyo Co., Ltd., priority 1987, dated 1989)

Columns and labels:
[1] = Activity on Electroconvulsive Shock-induced Amnesia (step-through passive avoidance, light-and-dark box); type: in vivo, mouse (dd strain, male); settings: for reaction latent time: Tables 2-2, 2-3 and 2-4, oral
Method: The antiamnestic activity was measured by using the light-and-dark box method. Symbols of the test compounds correspond to said compounds (Table 1).
As the test animals, 14 to 15 dd strain male mice (body weight: 23-28 g) were used for each group. As the experimental device, a step-through type passive avoidance training box composed of a light room and a dark room (light room: 130×90×90 mm; dark room 180×90×90 mm) was used.
In the acquisition trial where learning takes place, mice put in the light room move to the dark room. Each time the mice entered the dark room, electric stimulation of 0.25 mA was given to four limbs of each mouse for 2 seconds from grids on the floor.
Amnesia-inducing treatment was performed by electroconvulsive shock (2,000 V, 25 mA, 0.2 seconds) immediately after completion of the acquisition trial. After 24 hours, the test trial was conducted to measure the length of time before the mice entered the dark room. This time period, termed the reaction latent time, was recorded. A reaction latent time longer than 600 seconds was recorded as 600 seconds.
A test compound was suspended in 0.3% sodium carboxymethyl cellulose (hereinafter referred to as "CMC"). That suspension and a control of 0.3% CMC without any test compound were respectively administered to the mice 60 minutes prior to each test trial.
The effect was evaluated by Student-t test to determine whether there was a significant difference in reaction latent time between the amnesia control group and the group administered with the test compound in the passive avoidance test trial.

[2] = Activity on Scopolamine-induced Amnesia (step-through passive avoidance); type: in vivo, rat (Wistar strain, male); settings: for Number of Rats that Reached Standard Point / Number of Rats Tested: standard point 600 seconds
Source text: As the experimental device, a step-through type passive avoidance training box composed of a light room and a dark room (light room: 400×400×400 mm; dark room 200×150×200 mm) was used. In the acquisition trial where learning is made, rats put in the light room move to the dark room. Each time the rats entered the dark room, electric stimulation of 2 mA was given to four limbs of each rat for 3 seconds from grids on the floor.

[3] = Activity on Amnesia due to Damage of Basal Forebrain (kainic acid lesion, passive avoidance); type: in vivo, rat (Wistar strain, male); settings: for Number of Rats that Reached Standard Point / Number of Rats Tested: standard point 600 seconds
Method: As the test animals, 13 to 39 Wistar strain male rats (body weight: 250-300 g) were used for each group. Amnesia-inducing treatment was effected by damaging the basal forebrain through injection of 0.2 μg/μl kainic acid at the basal forebrain from both sides under anesthesia with pentobarbital-Na.
After the recovery period of about 10 days following the operation, the trial for acquiring learning (training) was performed in a similar manner using the same experimental device as in Experiment 2. After 24 hours, the test trial was carried out.
Measurement of the latent time was carried out in a similar manner as in Experiment 1. Test Compound B and idebenone were suspended in 0.3% CMC, and the suspension was administered twice 60 minutes prior to the training and 60 minutes prior to the test.
Alternatively, the suspension was administered for 9 consecutive days after the recovery period. In this case, Compound B was orally administered and idebenone was intraperiotoneally administered; and the training was conducted on day 8 and the test trial was conducted on day 9. […]

Acute Toxicity, rats = settings: in vivo; oral, rat (male)
Method: (§1) Acute toxicity test was carried out by orally administering Compound (I) used in the present invention to mice (male) and rats (male).

Acute Toxicity, mice = settings: in vivo; oral, mouse (male)
Method: as §1

[4] = idebenone intraperitoneal, imipramine oral
[5] = 2.5 mg/kg, administered for 9 days, intraperitoneal
[6] = 10 mg/kg, administered for 9 days, intraperitoneal
[7] = 2.5 mg/kg, administered for 9 days, oral
[8] = 10 mg/kg, administered for 9 days, oral

Q: For `CNCCCN1c2ccccc2CCc2ccccc21` [Desipramine, desipramine, reference compound], which “ataxis in motor coordination, order of intensity” value (from here on “ataxis in motor coordination”) ([1]; Table 2-6, oral) is on record?
A: amitriptyline>desipramine>imipramine

Q: What does the source list for `COC1=C(OC)C(=O)C(CCCCCCCCCCO)=C(C)C1=O` [Idebenone, idebenone, reference compound]?
A: Test Trial Mean Reaction Latent Time ([2]; 2.5 mg/kg, intraperitoneal): 58.4 ± 19.7 s; Number of Rats that Reached Standard Point / Number of Rats Tested ([2]; 2.5 mg/kg, intraperitoneal): 0/10; Test Trial Mean Reaction Latent Time ([2]; 5 mg/kg, intraperitoneal): 110.6 ± 30.2 s; Number of Rats that Reached Standard Point / Number of Rats Tested ([2]; 5 mg/kg, intraperitoneal): 0/10; Test Trial Mean Reaction Latent Time ([2]; 10 mg/kg, intraperitoneal): 148.8 ± 60.2 s; Number of Rats that Reached Standard Point / Number of Rats Tested ([2]; 10 mg/kg, intraperitoneal): 0/10; antiamnestic activity [2, 4]: showed no antiamnestic activity; Test Trial Mean Reaction Latent Time [3, 5]: 382.8 ± 80.2 s; Number of Rats that Reached Standard Point / Number of Rats Tested [3, 5]: 7/13; Test Trial Mean Reaction Latent Time [3, 6]: 178.2 ± 68.2 s; Number of Rats that Reached Standard Point / Number of Rats Tested [3, 6]: 3/13; Test Trial Mean Reaction Latent Time ([3]; 10 mg/kg, administered twice): 52.0 ± 22.1 s; Number of Rats that Reached Standard Point / Number of Rats Tested ([3]; 10 mg/kg, administered twice): 0/14; Test Trial Mean Reaction Latent Time ([3]; 20 mg/kg, administered twice): 15.2 ± 3.4 s; Number of Rats that Reached Standard Point / Number of Rats Tested ([3]; 20 mg/kg, administered twice): 0/14; Test Trial Mean Reaction Latent Time ([3]; 40 mg/kg, administered twice): 27.7 ± 8.9 s; Number of Rats that Reached Standard Point / Number of Rats Tested ([3]; 40 mg/kg, administered twice): 0/14; improving effect ([3]; 9 consecutive days, 2.5 mg/kg, intraperitoneal): apparent improving effect; improving effect ([3]; administered twice, 10 to 40 mg/kg): showed no improving effect

Q: With `CCCCCCCC(=O)Nc1ccc(Cc2ccccn2)c([N+](=O)[O-])c1` [Compound E, α-(p-Octanoylamino-o-nitrobenzyl)pyridine] as the compound, how does the LD50 (Acute Toxicity, rats) read?
A: > 100 mg/kg

Q: And the LD50 (Acute Toxicity, mice)?
A: > 1000 mg/kg

Q: Which “Test Trial Mean Reaction Latent Time” value ([2]; 20 mg/kg, oral) does the source give for `CN(C)CCCN1c2ccccc2CCc2ccccc21` [Imipramine, imipramine] here?
A: 110.4 ± 44.3 s

Q: And the “Number of Rats that Reached Standard Point / Number of Rats Tested” value ([2]; 20 mg/kg, oral)?
A: 1/13

Q: And the “Test Trial Mean Reaction Latent Time” value ([2]; 40 mg/kg, oral)?
A: 186.6 ± 54.0 s

Q: And the “Number of Rats that Reached Standard Point / Number of Rats Tested” value ([2]; 40 mg/kg, oral)?
A: 1/13

Q: What about the “antiamnestic activity” value [2, 4] of the same compound?
A: showed no antiamnestic activity

Q: What about the “ataxis in motor coordination” value ([1]; Table 2-6, oral) of the same compound?
A: amitriptyline>desipramine>imipramine

Q: For `CN(C)CCC=C1c2ccccc2CCc2ccccc21` [Amitriptyline, amitriptyline, reference compound], which “ataxis in motor coordination” value ([1]; mouse, in vivo, po) is on record?
A: amitriptyline>desipramine>imipramine

Q: Which results are given for `CCCCCC(=O)Nc1ccc(Cc2ccccn2)c([N+](=O)[O-])c1` [Compound D, α-(p-Hexanoylamino-o-nitrobenzyl)pyridine]?
A: reaction latent time [1]: prolonged; LD50 (Acute Toxicity, rats): > 100 mg/kg; LD50 (Acute Toxicity, mice): > 1000 mg/kg

Q: With `CCCCCCCCCCCCCC(=O)Nc1ccc(Cc2ccccn2)c([N+](=O)[O-])c1` [Compound G, α-(p-Myristylamino-o-nitrobenzyl)pyridine] as the compound, how does the “reaction latent time” value [1] read?
A: prolonged

Q: What about the LD50 (Acute Toxicity, rats) of the same compound?
A: > 100 mg/kg

Q: What about the LD50 (Acute Toxicity, mice) of the same compound?
A: > 1000 mg/kg

Q: For `CC(=O)Nc1ccc(Cc2ccccn2)c([N+](=O)[O-])c1` [Compound A, α-(p-Acetylamino-o-nitrobenzyl)pyridine], which “reaction latent time” value [1] is on record?
A: prolonged

Q: What about the LD50 (Acute Toxicity, rats) of the same compound?
A: > 200 mg/kg

Q: And the LD50 (Acute Toxicity, mice)?
A: 660 mg/kg

Q: Which results are given for `CCCCC(=O)Nc1ccc(Cc2ccccn2)c([N+](=O)[O-])c1` [Compound C, α-(p-Valerylamino-o-nitrobenzyl)pyridine]?
A: reaction latent time [1]: prolonged; LD50 (Acute Toxicity, mice): > 300 mg/kg

Q: Which “Test Trial Mean Reaction Latent Time” value ([2]; 2.5 mg/kg, oral) does the source give for `CCCC(=O)Nc1ccc(Cc2ccccn2)c([N+](=O)[O-])c1` [Compound B, α-(p-Butyrylamino-o-nitrobenzyl)pyridine] here?
A: 94.3 ± 30.3 s

Q: And the “Number of Rats that Reached Standard Point / Number of Rats Tested” value ([2]; 2.5 mg/kg, oral)?
A: 1/20

Q: And the “Test Trial Mean Reaction Latent Time” value ([2]; 5 mg/kg, oral)?
A: 148.9 ± 54.3 s

Q: And the “Number of Rats that Reached Standard Point / Number of Rats Tested” value ([2]; 5 mg/kg, oral)?
A: 3/17

Q: And the “Test Trial Mean Reaction Latent Time” value ([2]; 10 mg/kg, oral)?
A: 201.2 ± 55.5 s

Q: What about the “Number of Rats that Reached Standard Point / Number of Rats Tested” value ([2]; 10 mg/kg, oral) of the same compound?
A: 4/20

Q: What about the “Test Trial Mean Reaction Latent Time” value ([2]; 20 mg/kg, oral) of the same compound?
A: 172.4 ± 52.6 s

Q: And the “Number of Rats that Reached Standard Point / Number of Rats Tested” value ([2]; 20 mg/kg, oral)?
A: 2/17

Q: And the “Test Trial Mean Reaction Latent Time” value ([2]; 40 mg/kg, oral)?
A: 171.2 ± 52.5 s

Q: And the “Number of Rats that Reached Standard Point / Number of Rats Tested” value ([2]; 40 mg/kg, oral)?
A: 4/20

Q: And the “antiamnestic activity” value ([2]; oral, dose of 5 to 40 mg/kg)?
A: showed an antiamnestic activity

Q: What about the “reaction latent time compared with the amnestic control group” value ([1]; doses of 10, 40, 80 and 160 mg/kg, oral) of the same compound?
A: significantly prolonged

Q: What about the LD50 (Acute Toxicity, rats) of the same compound?
A: > 850 mg/kg

Q: And the “Test Trial Mean Reaction Latent Time” value [3, 7]?
A: 243.2 ± 73.7 s

Q: And the “Number of Rats that Reached Standard Point / Number of Rats Tested” value [3, 7]?
A: 4/13

Q: And the “Test Trial Mean Reaction Latent Time” value ([3]; 2.5 mg/kg, administered twice)?
A: 121.8 ± 36.5 s

Q: What about the “Number of Rats that Reached Standard Point / Number of Rats Tested” value ([3]; 2.5 mg/kg, administered twice) of the same compound?
A: 1/19

Q: What about the “Test Trial Mean Reaction Latent Time” value ([3]; 5 mg/kg, administered twice) of the same compound?
A: 215.5 ± 60.0 s

Q: And the “Number of Rats that Reached Standard Point / Number of Rats Tested” value ([3]; 5 mg/kg, administered twice)?
A: 5/19

Q: What about the “Test Trial Mean Reaction Latent Time” value [3, 8] of the same compound?
A: 259.0 ± 78.5 s

Q: What about the “Number of Rats that Reached Standard Point / Number of Rats Tested” value [3, 8] of the same compound?
A: 5/13

Q: What about the “Test Trial Mean Reaction Latent Time” value ([3]; 10 mg/kg, administered twice) of the same compound?
A: 191.2 ± 57.7 s

Q: And the “Number of Rats that Reached Standard Point / Number of Rats Tested” value ([3]; 10 mg/kg, administered twice)?
A: 3/18

Q: What about the “Test Trial Mean Reaction Latent Time” value ([3]; 20 mg/kg, administered twice) of the same compound?
A: 209.2 ± 60.2 s

Q: And the “Number of Rats that Reached Standard Point / Number of Rats Tested” value ([3]; 20 mg/kg, administered twice)?
A: 4/18

Q: And the “Test Trial Mean Reaction Latent Time” value ([3]; 40 mg/kg, administered twice)?
A: 163.0 ± 51.5 s

Q: And the “Number of Rats that Reached Standard Point / Number of Rats Tested” value ([3]; 40 mg/kg, administered twice)?
A: 2/18

Q: What about the “improving activity” value ([3]; 9 consecutive days, 10 mg/kg, oral) of the same compound?
A: significant (P<0.05) improving activity

Q: What about the “activity of alleviating learning disturbance” value ([3]; administered twice, 2.5 mg/kg or more) of the same compound?
A: showed an activity of alleviating learning disturbance

Q: And the “improving activity in the learning-disturbed animal model” value ([3]; rat, in vivo)?
A: apparent improving activity

Q: What about the LD50 (Acute Toxicity, mice) of the same compound?
A: 1530 mg/kg

Q: What does the source list for `CCCCCCCCCC(=O)Nc1ccc(Cc2ccccn2)c([N+](=O)[O-])c1` [Compound F, α-(p-Decanoylamino-o-nitrobenzyl)pyridine]?
A: LD50 (Acute Toxicity, rats): > 100 mg/kg; LD50 (Acute Toxicity, mice): > 1000 mg/kg
